{"source": "patent US20230149418A1", "about": "“METHODS AND SYNERGIC COMPOSITIONS FOR TREATING VIRAL INFECTIONS” (HADASIT MEDICAL RESEARCH SERVICES AND DEVELOPMENT LTD., priority 2018, published 2023)", "key": {"HCMV": {"test_system": "HCMV", "assay": "Ex vivo HCMV infection of human decidual (placental) tissue organ cultures, viral mRNA copy number", "format": "cell-based, human cytomegalovirus", "conditions": "for pEC50: Human betaherpesvirus 5; for Dose of drug alone at Fa 0.9: Fa 0.9, drug alone; for DRI (dose reduction index): combination artemisone + maribavir", "description": "Organ cultures were washed and stored at -80° C. until assayed. RNA was extracted, and the purified RNA samples were subjected to reverse transcription (RT), followed by quantitative real-time PCR. The viral mRNA copy number was normalized by the cellular housekeeping gene β-actin.\nWe employed our model of HCMV infection in human decidual tissues (representing the maternal aspect of the chimeric human placenta), maintained as multi-cell-type 3D organ cultures as described in Weisblum Y. et al. J Virol 2011 85(24): 13204-13. doi: 10.1128/JVI.05749-11. For infection of the organ cultures, decidual tissues were placed in 48-well plates and inoculated with the virus (5x10^4 plaque forming units (PFU)/well) for 12 h to allow effective viral adsorption. The tissues were further monitored for viral infection and spread for 7 days. For determination of the drug EC50 values of in the tissues, serial drug concentrations: each drug separately or combination of the drugs were added to the infected decidual tissues during viral adsorption at any further medium replacement to keep the drug concentration constant. The results were compared to samples to which the drug was not added. The EC50 was defined as the drug concentration required to reduce the viral mRNA copy number by 50%. The effect of drug combinations was tested in accordance with the Chou-Talalay method. All comparative experiments were performed in parallel on tissues from the same donor.\nThe dose reduction index (DRI) was then calculated as described in Chou. As described earlier, the DRI is a measure of how many folds the dose of each drug in a synergistic combination may be reduced at a given effect level compared with the doses of each drug alone. For each one of the below tables: Fa - fraction of virus affected; doses are provided in µm."}, "HCMV TB40/E strain": {"test_system": "HCMV TB40/E strain", "assay": "Plaque reduction assay, HCMV TB40/E strain in human foreskin fibroblasts, single drugs and 2-drug combinations (Chou-Talalay)", "format": "cell-based, human cytomegalovirus", "conditions": "for pEC50: Human betaherpesvirus 5, Fibroblast; for DRI (dose reduction index): combination artemisone + maribavir", "description": "The CMV strain used was TB40/E. The CMV strain was propagated and tittered in human foreskin fibroblasts (HFF) cells. Cell-free virus stocks and cell-associated clinical isolates were maintained at -70° C. Viral stocks were tittered by serial 10-fold dilution in 24-well tissue culture plates containing HFF monolayers overlaid with agarose-medium. After incubation for 7 to 14 days, plaques were enumerated, and virus titer was determined as plaque forming units (PFU) per milliliter (ml). Stocks of artemisone (10 mM), ganciclovir (10 mM), BDCRB (120 mM), brincidofovir (1 mM), maribavir (10 mM) and letermovir (10 mM) were prepared in DMSO or H2O.\nCell monolayers were inoculated in 24-well culture plates with 0.2 ml of virus suspension containing 60 to 100 PFU per well. After adsorption for 60 -120 min at 37° C., the inoculum was removed, and culture medium was replaced with agarose-medium overlay containing serial concentrations of the tested drug(s). Plates were incubated for 7-14 days at 37° C. in a 5% CO2 incubator. Plaques were then counted microscopically.\nThe effect of a combination of artemisone with each one of ganciclovir (HCMV DNA polymerase), BDCRB (HCMV terminase inhibitor), brincidofovir (HCMV DNA polymerase inhibitor), maribavir (HCMV UL97 kinase inhibitor) and letermovir (HCMV terminase inhibitor) was evaluated by the classical plaque reduction assay. The in vitro activity of each of the above mentioned antiviral compounds alone or in combination with artemisone was evaluated by the classical plaque reduction assay, using HCMV TB40/E strain in human foreskin fibroblasts cells. The concentration of each antiviral compound that reduced the plaque formation by 50% (EC50) was determined as previously described in Wolf DG et al., J Clin Invest. 1995;95:257-63. The individual EC50 values in human foreskin fibroblasts were as follows: artemisone EC50 - 1 µM; ganciclovir EC50 - 1 µM; maribavir EC50 - 1 µM; BDCRB EC50 - 0.5 µM; letermovir EC50 - 5 nM; brincidofovir EC50 -1 nM.\nFor the 2-drug combination studies, the EC50 value of each drug was used to determine an equipotent ratio between the two compounds (EC50 of drug 1 / EC50 of drug 2). Serial 2-fold dilutions of a mixture comprising artemisone and another antiviral compound at initial concentrations equivalent to 4-fold the equipotent ratio were added to duplicate wells of cells infected with HCMV. Overall, 5 different concentrations of the drug combinations were used: 4xEC50, 2xEC50, 1xEC50,0.5xEC50,0.25xEC50. The cell monolayers were inoculated in 24-well culture plates with 0.2 ml of virus suspension containing 60 to 100 plaque-forming unit (PFU) per well; the Multiplicity of infection (MOI) was 0.001-0.002 PFU/cell).\nD1 and D2 are the doses of the two drugs, and Dx is a dose causing to x% effect (LD0.5 is EC50). Briefly, the software extrapolated a combination index (CI) representing the interaction between the two drugs at specified levels of virus inhibition (that is 50%, 75%, 90%, 95%) versus the percentages of the inhibition induced by each drug alone and in combination (equation 16 in Chou).\nA weighted average CI (CIwt) was then calculated for each combination as (CI50+ 2×CI75+3×CI90+4×CI95)/10, to access the drug combinatory effects.\nThe dose reduction index (DRI) was then calculated as described in Chou. In general, the DRI measures the fold of dose reduction of each drug in the combination at a given effect level compared with the doses of each drug alone. For each one of the below tables: Fa - fraction of virus affected; doses are provided in µm."}}, "note": "pEC50: −log10 of the molar value. Read-outs that look alike come from different tables or passages of the source."}
{"smiles": "CC(C)Nc1nc2cc(Cl)c(Cl)cc2n1[C@H]1O[C@@H](CO)[C@H](O)[C@@H]1O", "note": "[maribavir]", "values": [{"measurement": "pEC50", "setting": "HCMV; ex vivo, Fa 0.5, drug alone, read-out: Dose of drug alone at Fa 0.5", "value": 6.73}, {"measurement": "pEC50", "setting": "HCMV; sole drug, ex vivo decidual tissues, read-out: EC50 (concentration required to reduce the viral mRNA copy number by 50%)", "value": 6.60}, {"measurement": "Dose of drug alone at Fa 0.05", "setting": "HCMV; ex vivo, Fa 0.05, drug alone", "value": 0.01861, "unit": "µm"}, {"measurement": "Dose of drug alone at Fa 0.75", "setting": "HCMV; ex vivo, Fa 0.75, drug alone", "value": 0.4396, "unit": "µm"}, {"measurement": "Dose of drug alone at Fa 0.9", "setting": "HCMV; ex vivo", "value": 1.03, "unit": "µm"}, {"measurement": "Dose of drug alone at Fa 0.9", "setting": "HCMV; ex vivo, listed as MBV", "value": 1.038, "unit": "µm"}, {"measurement": "Dose of drug alone at Fa 0.95", "setting": "HCMV; ex vivo, Fa 0.95, drug alone", "value": 1.862, "unit": "µm"}, {"measurement": "Dose of drug alone at Fa 0.97", "setting": "HCMV; ex vivo, Fa 0.97, drug alone", "value": 2.822, "unit": "µm"}, {"measurement": "DRI (dose reduction index)", "setting": "HCMV; ex vivo, Fa 0.05", "value": 0.66}, {"measurement": "DRI (dose reduction index)", "setting": "HCMV; ex vivo, Fa 0.5", "value": 0.982}, {"measurement": "DRI (dose reduction index)", "setting": "HCMV; ex vivo, Fa 0.75", "value": 1.139}, {"measurement": "DRI (dose reduction index)", "setting": "HCMV; ex vivo, Fa 0.9", "value": 1.3}, {"measurement": "DRI (dose reduction index)", "setting": "HCMV; ex vivo, Fa 0.9, listed as MBV", "value": 1.321}, {"measurement": "DRI (dose reduction index)", "setting": "HCMV; ex vivo, Fa 0.95, listed as MBV", "value": 1.461}, {"measurement": "DRI (dose reduction index)", "setting": "HCMV; ex vivo, Fa 0.97", "value": 1.57}, {"measurement": "Dose of drug alone at Fa 0.75", "setting": "HCMV TB40/E strain; Fa 0.75, drug alone", "value": 0.8994, "unit": "µm"}, {"measurement": "Dose of drug alone at Fa 0.9", "setting": "HCMV TB40/E strain; Fa 0.9, drug alone", "value": 3.458, "unit": "µm"}, {"measurement": "Dose of drug alone at Fa 0.95", "setting": "HCMV TB40/E strain; Fa 0.95, drug alone", "value": 8.644, "unit": "µm"}, {"measurement": "Dose of drug alone at Fa 0.97", "setting": "HCMV TB40/E strain; Fa 0.97, drug alone", "value": 16.5865, "unit": "µm"}, {"measurement": "Dose of drug alone at Fa 0.05", "setting": "HCMV TB40/E strain; Fa (fraction of virus affected) 0.05, drug alone", "value": 0.00633, "unit": "µm"}, {"measurement": "pEC50", "setting": "HCMV TB40/E strain; Fa 0.5, drug alone, read-out: Dose of drug alone at Fa 0.5", "value": 6.63}, {"measurement": "pEC50", "setting": "HCMV TB40/E strain; drug alone, human foreskin fibroblasts, read-out: EC50 (concentration that reduced the plaque formation by 50%)", "value": 6.00}, {"measurement": "DRI (dose reduction index)", "setting": "HCMV TB40/E strain; Fa 0.05", "value": 2.039}, {"measurement": "DRI (dose reduction index)", "setting": "HCMV TB40/E strain; Fa 0.5", "value": 5.884}, {"measurement": "DRI (dose reduction index)", "setting": "HCMV TB40/E strain; Fa 0.75", "value": 8.738}, {"measurement": "DRI (dose reduction index)", "setting": "HCMV TB40/E strain; Fa 0.9", "value": 12.98}, {"measurement": "DRI (dose reduction index)", "setting": "HCMV TB40/E strain; Fa 0.9, listed as MBV", "value": 12.9771}, {"measurement": "DRI (dose reduction index)", "setting": "HCMV TB40/E strain; Fa 0.95", "value": 16.9821}, {"measurement": "DRI (dose reduction index)", "setting": "HCMV TB40/E strain; Fa 0.97", "value": 20.6}, {"measurement": "DRI (dose reduction index)", "setting": "HCMV TB40/E strain; Fa 0.97, listed as MBV", "value": 20.5640}]}
